Values of other authors, collected in PubChem BioAssay AID1259410 (Chemical Carcinogenesis Research Information System (CCRIS), 2018).

Test system: rodent tumor promotion studies, tumor incidence
Assay: CCRIS tumor promotion studies

## CCC1(c2ccccc2)C(=O)NC(=O)NC1=O
Carcinogen: 2-(ACETYLAMINO)FLUORINE, Doses [Carcinogen]: DIET, Doses [Promoter]: IN DIET, Route [Carcinogen]: ORAL, Route [Promoter]: ORAL, Species: RAT, Strain/Sex: MALE
  outcome: liver
Carcinogen: 3'-METHYL-4-DIMETHYLAMINOAZOBENZENE, Doses [Carcinogen]: DIET, Doses [Promoter]: IN DIET, Route [Carcinogen]: ORAL, Route [Promoter]: ORAL, Species: RAT, Strain/Sex: MALE
  outcome: liver
Carcinogen: 4-DIMETHYLAMINOAZOBENZENE, Doses [Carcinogen]: DIET, Doses [Promoter]: IN DIET, Route [Carcinogen]: ORAL, Route [Promoter]: ORAL, Species: RAT, Strain/Sex: MALE
  outcome: liver
Carcinogen: DIETHYLNITROSAMINE [55-18-5], Doses [Carcinogen]: 90 MG/KG BW ONCE, Doses [Promoter]: 90 MG/KG BW DAILY FOR UP TO 76 WK STARTING 2 WK AFTER CARCINOGEN TREATMENT (STUDY DURATION: 76 WK), Route [Carcinogen]: IP INJECTION, Route [Promoter]: DIET, Species: MOUSE, Strain/Sex: C3H/HE/MALE
  outcome: liver: tumor incidence was 100% by 52 wk and 10 tumors/animal
Carcinogen: DIETHYLNITROSAMINE [55-18-5], Doses [Carcinogen]: 90 MG/KG BW ONCE, Doses [Promoter]: 90 MG/KG BW DAILY FOR UP TO 90 WK STARTING 2 WK AFTER CARCINOGEN TREATMENT (STUDY DURATION: 92 WK), Route [Carcinogen]: IP INJECTION, Route [Promoter]: DIET, Species: MOUSE, Strain/Sex: B6C3F1/MALE
  outcome: liver: promoter increased liver tumor incidence considerably, 12 tumors/animal a
Carcinogen: DIETHYLNITROSAMINE [55-18-5], Doses [Carcinogen]: 90 MG/KG BW ONCE, Doses [Promoter]: 90 MG/KG BW DAILY FOR UP TO 90 WK STARTING 2 WK AFTER CARCINOGEN TREATMENT (STUDY DURATION: 92 WK), Route [Carcinogen]: IP INJECTION, Route [Promoter]: DIET, Species: MOUSE, Strain/Sex: C57BL/6J/MALE
  outcome: liver: tumor; 5 tumors/animal at 76 wk; pb increased tumors somewhat at 40-92 wk
Carcinogen: DIETHYLNITROSAMINE, 55-18-5, Doses [Carcinogen]: 5 MG/KG IN SALINE ONCE ON DAY 15 OF AGE, Doses [Promoter]: 0, 500 MG/L FOR 24 WK BEGINNING AT 28 DAYS OF AGE (STUDY DURATION: 28 WK), Route [Carcinogen]: INTRAPERITONEAL, Route [Promoter]: ORAL, Species: MOUSE, Strain/Sex: C3H/MALE
  outcome: liver: adenoma
Carcinogen: DIETHYLNITROSAMINE, 55-18-5, Doses [Carcinogen]: 10 MG/KG ONCE, Doses [Promoter]: 0, 500 PPM IN DIET FOR 140 D BEGINNING 30 D POST CARCINOGEN DOSE (STUDY DURATION: 450 D), Route [Carcinogen]: INTRAPERITONEAL, Route [Promoter]: ORAL, Species: RAT, Strain/Sex: SPRAGUE-DAWLEY/FEMALE
  outcome: liver: adenoma or carcinoma
Carcinogen: DIETHYLNITROSAMINE, 55-18-5, Doses [Carcinogen]: 80 MG/KG BW ONCE, Doses [Promoter]: 0, 0.05% IN DIET FOR 39 WK BEGINNING 1 WK POST CARCINOGEN DOSE (STUDY DURATION: 40 WK), Route [Carcinogen]: INTRAPERITONEAL, Route [Promoter]: ORAL, Species: RAT, Strain/Sex: F344/MALE
  outcome: liver: tumor
Carcinogen: DIETHYLNITROSAMINE, 55-18-5, Doses [Carcinogen]: 150 MG/KG ONCE, Doses [Promoter]: 0.05% IN DIET BEGINNING 2 WK POST CARCINOGEN DOSE AND CONTINUING FOR 54 WK (STUDY DURATION: 56 WK), Route [Carcinogen]: INTRAPERITONEAL, Route [Promoter]: ORAL, Species: RAT, Strain/Sex: F344/MALE
  outcome: liver: hepatocellular carcinoma or neoplastic nodule
Carcinogen: DIETHYLNITROSAMINE, 55-18-5, Doses [Carcinogen]: 150 MG/KG ONCE, Doses [Promoter]: 0.05% IN DIET BEGINNING 2 WK POST CARCINOGEN DOSE FOR 11 WK FOLLOWED BY CONTROL DIET FOR DURATION OF STUDY (STUDY DURATI, Route [Carcinogen]: INTRAPERITONEAL, Route [Promoter]: ORAL, Species: RAT, Strain/Sex: F344/MALE
  outcome: liver: hepatocellular carcinoma or neoplastic nodule
Carcinogen: DIETHYLNITROSAMINE, 55-18-5, Doses [Carcinogen]: 150 MG/KG ONCE, Doses [Promoter]: 0.05% IN DIET BEGINNING 11 WK POST CARCINOGEN DOSE AND CONTINUING FOR DURATION OF STUDY (STUDY DURATION: 56 WK), Route [Carcinogen]: INTRAPERITONEAL, Route [Promoter]: ORAL, Species: RAT, Strain/Sex: F344/MALE
  outcome: liver: hepatocellular carcinoma or neoplastic nodule
Carcinogen: DIETHYLNITROSAMINE, Doses [Carcinogen]: SC, Doses [Promoter]: IN DIET, Route [Carcinogen]: SUBCUTANEOUS, Route [Promoter]: ORAL, Species: RAT, Strain/Sex: MALE
  outcome: liver
Carcinogen: DIMETHYLNITROSAMINE, 62-75-9, Doses [Carcinogen]: 5 MG/KG IN SALINE ONCE ON DAY 15 OF AGE, Doses [Promoter]: 0, 500 MG/L FOR 24 WK BEGINNING AT 28 DAYS OF AGE (STUDY DURATION: 28 WK), Route [Carcinogen]: INTRAPERITONEAL, Route [Promoter]: ORAL, Species: MOUSE, Strain/Sex: B6C3F1/MALE
  outcome: liver: adenoma
Carcinogen: DIMETHYLNITROSAMINE, 62-75-9, Doses [Carcinogen]: 5 MG/KG IN SALINE ONCE ON DAY 15 OF AGE, Doses [Promoter]: 0, 500 MG/L FOR 24 WK BEGINNING AT 28 DAYS OF AGE (STUDY DURATION: 28 WK), Route [Carcinogen]: INTRAPERITONEAL, Route [Promoter]: ORAL, Species: MOUSE, Strain/Sex: C3H/MALE
  outcome: liver: adenoma
